From US20170223976A1, “MODIFIED MILK POWDER CONTAINING 1,5-ANHYDRO-D-GLUCITOL” (NIHON STARCH CO., LTD., priority 2015, published 2017) come the findings set out here.

Molecules are shown by their SMILES.

Assay [1] has as its system PSG-1 gene. In words: PSG-1 gene expression in intestinal tract cells (Caco-2), real-time RT-PCR. It counts as cell-based. As to conditions: Caco-2 cells; for expression level of PSG-1 gene relative to non-added section: 3 days. As to the method:
PSG-1 is a gene which is expressed in placental cells in large quantities in pregnancy. The influence of 1,5-AG upon the expression of PSG-1 in intestinal tract cells which is not connected with pregnancy was investigated.
A test was carried out at five concentrations (1.6, 8, 40, 200 and 1,000 μg/mL) of 1,5-AG. Stated more specifically, a 1,5-AG aqueous solution having a concentration of 100 mg/mL was diluted with water to prepare 100 times-concentrated solutions having concentrations of 0.16, 0.8, 4, 20 and 100 mg/mL. These 100 times-concentrated solutions were each added to a medium in a ratio of 1/100 to achieve final concentrations of […] and sterilized with a filter to be used in the test. As a negative control, water was added to a medium in a ratio of 1/100 and sterilized with a filter to be used in the test.
A medium was used to adjust Caco-2 cells to a concentration of 1×10^5 cells/0.3 mL/well, and the cells were scattered on a 48-well plate to be cultured in a CO2 incubator (5% CO2, 37° C.) for 14 days (medium was exchanged every other day). After culture, it was confirmed that the cells were differentiated into intestinal epidermoid cells, the medium was replaced by a sample-containing test medium and a control-containing test medium to culture the cells in a CO2 incubator for 3 days, and total RNA was extracted from the cells to analyze the expression level of PSG-1 gene. These procedures were repeated five times each.
Total RNA was extracted by using the FastLane Cell cDNA kit. […]
The synthesis of cDNA was carried out by using the QuantiTect reverse transcription kit. […]
Real-time PCT was carried out by an intercalator method using SYBR Green I. Stated more specifically, a total of an 8 μL system consisting of 1 μL of synthesized cDNA, 2.6 μL of dsH2O, 4 μL of SYBR Premix ExTag, 0.2 μL of Forward primer (5 μM) and 0.2 μL of Reverse primer (5 μM) was used. […] The relative expression level was calculated by the ? […]
(In general: In qPCR the cycle at which signal appears reflects the starting amount.)

Assay [2] has as its system PSG-1 gene. In words: PSG-1 gene expression in placental trophoblastic cells, real-time RT-PCR. Type of assay: cell-based, human. The settings on record: for expression level of PSG-1 gene relative to non-added section: after 72 hours. As to the method:
The influence upon these two genes (PSG-1 and CSH-1) of 1,5-AG was analyzed by a real-time RT-PCR method using placental trophoblastic cells. As a preliminary study, the expression level of PSG-1 was analyzed at three concentrations (1 μg/mL or less, 40 μg/mL and 160 μg/mL of 1,5-AG) and for three sampling times (3, 24 and 72 hours). A test was conducted by the following method.
Human placental villous trophoblastic cells (ScienCell Research Laboratories)
The human placental villous trophoblastic cells were initiated in a T-75 flask by using a trophoblast medium (to be simply referred to as “medium” hereinafter) to be cultured in a CO2 incubator (5% CO2, 37° C., moistening). Medium exchange was carried out every 2 days, the cells were collected when 80% confluence was reached, and cells having a passage number of 2 were used in this test. Stated more specifically, after the cells were washed with D-PBS (−), the cells were separated by using 0.25% trypsin-EDTA, and a medium was added to neutralize trypsin. Then, the supernatant was removed by centrifugation (180 g, 5 minutes), a new medium was added to stir the cells, the number of the cells was counted by using a corpuscle calculating board, and a medium was used to achieve a target concentration (4.0×10^3 cells/100 μL).
The sample was added to mediums to achieve 1,5-AG final concentrations of 40 μg/mL and 160 μg/mL. When the final concentration was not more than 1 μg/mL, 1,5-AG was not added. Stated more specifically, a 1,5-AG aqueous solution having a concentration of 40 mg/mL was added to a test medium in a ratio of 1/1000 or 1/250 to achieve a final concentration of 40 μg/mL or 160 μg/mL, and the 1,5-AG solution was sterilized with a filter to be used in the test. […]
The PCR reaction was carried out under the conditions of 95° C.·30 sec−(95° C.·10 sec−60° C.·30 sec)×45 cycles−95° C.·15 sec−55° C.·15 sec−95° C.·15 sec, and the dissociation curve of the PCR product was obtained after the end of the PCR reaction. The relative expression level was calculated by the ? […]

With `OC[C@H]1OC[C@H](O)[C@@H](O)[C@@H]1O` [1,5-AG, 1,5-anhydro-D-glucitol], the “expression level of PSG-1 gene relative to non-added section” value in the assay with PSG-1 gene [1] (8 μg/mL) was determined as 1.31 times; with PSG-1 gene [1] (40 μg/mL), 1.34 times; with PSG-1 gene [2] (40 μg/mL 1,5-AG), 1.54 times; with PSG-1 gene [2] (160 μg/mL 1,5-AG), 1.62 times. Moreover, in the assay with PSG-1 gene [1] (3 days, 1,5-AG added section), the “average expression level of PSG-1 gene versus non-added section” value is recorded as “tends to become higher”. Moreover, the “expression level of PSG-1 gene over treatment time” value in the assay on PSG-1 gene [2] (1,5-AG added sections, 3, 24 and 72 hours) is on record as “rose in proportion to the sample treatment time”.
